Results as given in patent US8003785B2 (Takeda Pharmaceutical Company Limited, priority 2008, dated 2011).

These compounds were tested against T1, PLK1 (Homo sapiens, UniProt P53350) (assay: Biochemical Characterization Assay: HTRF kinase assay, GST-PLK1 phosphorylation of GST-p53). Conditions: GST-PLK1, GST-p53 substrate.
T1 construct: Full-length, active GST-PLK1 is purified from Sf9 insect cells; made in house; host or cells: Sf9 insect cells
Experimental: Biochemical Characterization Assay
Full-length, active GST-PLK1 is purified from Sf9 insect cells, and full-length GST-p53 is purified from E. coli. Anti-phospho p53 antibody is from Cell Signaling Technology. Europium-conjugated anti-rabbit antibody is from PerkinElmer Life and Analytical Sciences. APC-conjugated anti-GST antibody is from Prozyme.
Six microliters of GST-PLK1 (3 ug/mL) in Kinase Assay Buffer are then added and the solution incubated at 37° C. for 35 minutes. Six microliters of solution containing 43 mM EDTA to stop the reaction and a 1:600 dilution of anti-phospho-p53 antibody in 20 mM HEPES pH 7, 50 mM NaCl, and 0.5 mg/mL BSA (Antibody Binding Buffer) are added and the solution incubated at 37° C. for 30 minutes. […] The HTRF signal is read on an Envision reader from PerkinElmer Life and Analytical Sciences.

T1 sequence (P53350 whole entry): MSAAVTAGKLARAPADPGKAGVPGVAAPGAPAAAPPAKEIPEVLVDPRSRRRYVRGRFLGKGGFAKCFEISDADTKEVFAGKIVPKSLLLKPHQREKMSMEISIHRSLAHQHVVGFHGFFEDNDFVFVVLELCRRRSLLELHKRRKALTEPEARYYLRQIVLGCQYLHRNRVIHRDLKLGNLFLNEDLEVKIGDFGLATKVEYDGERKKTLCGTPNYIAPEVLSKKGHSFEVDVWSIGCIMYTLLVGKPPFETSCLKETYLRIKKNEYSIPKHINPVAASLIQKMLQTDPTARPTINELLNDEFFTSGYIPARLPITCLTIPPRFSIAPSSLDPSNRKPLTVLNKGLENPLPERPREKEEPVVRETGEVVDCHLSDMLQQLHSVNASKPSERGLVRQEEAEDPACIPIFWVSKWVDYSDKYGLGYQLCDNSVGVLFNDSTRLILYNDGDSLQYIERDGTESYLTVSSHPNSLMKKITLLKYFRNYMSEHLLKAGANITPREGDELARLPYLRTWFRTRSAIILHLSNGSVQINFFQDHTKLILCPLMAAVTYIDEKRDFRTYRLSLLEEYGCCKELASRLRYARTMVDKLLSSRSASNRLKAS

IC50 [nM] | SMILES
> 5000 | COc1cc(C(=O)O)ccc1Nc1ncc2c(n1)N([C@@H]1C[C@H]1c1ccccc1)CC(F)(F)C(=O)N2C (relative stereo) [Example I-287, 4-[7,7-difluoro-5-methyl-6-oxo-9-(trans-2-phenyl-cyclopropyl)-6,7,8,9-tetrahydro-5H-pyrimido[4,5-b][1,4]diazepin-2-ylamino]-3-methoxy-benzoic acid]
51 to 500 | COc1cc(C(=O)NC2CCN(C)CC2)ccc1Nc1ncc2c(n1)N([C@@H]1C[C@H]1c1ccccc1)CC(F)(F)C(=O)N2C (relative stereo) [Example I-288, 4-[7,7-difluoro-5-methyl-6-oxo-9-(trans-2-phenyl-cyclopropyl)-6,7,8,9-tetrahydro-5H-pyrimido[4,5-b][1,4]diazepin-2-ylamino]-3-methoxy-N-(1-methyl-piperidin-4-yl)-benzamide]
> 5000 | COc1cc(C(N)=O)ccc1Nc1ncc2c(n1)N([C@@H]1C[C@H]1c1ccccc1)CC(F)(F)C(=O)N2C (relative stereo) [Example I-289, 4-[7,7-difluoro-5-methyl-6-oxo-9-(trans-2-phenyl-cyclopropyl)-6,7,8,9-tetrahydro-5H-pyrimido[4,5-b][1,4]diazepin-2-ylamino]-3-methoxy-benzamide]
51 to 500 | COc1cc(C(=O)NCCCN(C)C)ccc1Nc1ncc2c(n1)N([C@@H]1C[C@H]1c1ccccc1)CC(F)(F)C(=O)N2C (relative stereo) [Example I-290, 4-[7,7-difluoro-5-methyl-6-oxo-9-(trans-2-phenyl-cyclopropyl)-6,7,8,9-tetrahydro-5H-pyrimido[4,5-b][1,4]diazepin-2-ylamino]-N-(3-dimethylamino-propyl)-3-methoxy-benzamide]

Same assay, conditions: GST-PLK1, GST-p53 substrate, ATP

IC50 [nM] | SMILES
51 to 500 | COc1cc(C(=O)NC(C)c2ccccc2)ccc1Nc1ncc2c(n1)N(C1CCCC1)CC(F)(F)C(=O)N2C (racemic) [Example I-37, rac-4-(9-cyclopentyl-7,7-difluoro-5-methyl-6-oxo-6,7,8,9-tetrahydro-5H-pyrimido[4,5-b][1,4]diazepin-2-ylamino)-3-methoxy-N-(1-phenyl-ethyl)-benzamide]
51 to 500 | COc1cc(C(=O)N[C@@H]2CCN(C(=O)OCc3ccccc3)C[C@H]2O)ccc1Nc1ncc2c(n1)N(C1CCCC1)CC(F)(F)C(=O)N2C (racemic) [Example I-54, rac-(3R,4R)-4-[4-(9-cyclopentyl-7,7-difluoro-5-methyl-6-oxo-6,7,8,9-tetrahydro-5H-pyrimido[4,5-b][1,4]diazepin-2-ylamino)-3-methoxy-benzoylamino]-3-hydroxy-piperidine-1-carboxylic acid benzyl ester]
51 to 500 | COc1cc(C(=O)N[C@@H]2CCN(C(=O)OCc3ccccc3)C[C@H]2OC)ccc1Nc1ncc2c(n1)N(C1CCCC1)CC(F)(F)C(=O)N2C (racemic) [Example I-55, rac-(3R,4R)-4-[4-(9-cyclopentyl-7,7-difluoro-5-methyl-6-oxo-6,7,8,9-tetrahydro-5H-pyrimido[4,5-b][1,4]diazepin-2-ylamino)-3-methoxy-benzoylamino]-3-methoxy-piperidine-1-carboxylic acid benzyl ester]
1 to 50 | COc1cc(C(=O)N[C@@H]2CCN(C(=O)OC(C)(C)C)C[C@@H]2OC)ccc1Nc1ncc2c(n1)N(C1CCCC1)CC(F)(F)C(=O)N2C (racemic) [Example I-56, rac-(3S,4R)-4-[4-(9-cyclopentyl-7,7-difluoro-5-methyl-6-oxo-6,7,8,9-tetrahydro-5H-pyrimido[4,5-b][1,4]diazepin-2-ylamino)-3-methoxy-benzoylamino]-3-methoxy-piperidine-1-carboxylic acid tert-butyl ester]
1 to 50 | COc1cc(C(=O)N[C@@H]2CCNC[C@@H]2OC)ccc1Nc1ncc2c(n1)N(C1CCCC1)CC(F)(F)C(=O)N2C (racemic) [Example I-57, rac-(3S,4R)-4-(9-cyclopentyl-7,7-difluoro-5-methyl-6-oxo-6,7,8,9-tetrahydro-5H-pyrimido[4,5-b][1,4]diazepin-2-ylamino)-3-methoxy-N-(3-methoxy-piperidin-4-yl)-benzamide]
51 to 500 | COc1cc(C(=O)N[C@H]2CN(C(=O)OCc3ccccc3)CC[C@@H]2OC)ccc1Nc1ncc2c(n1)N(C1CCCC1)CC(F)(F)C(=O)N2C (racemic) [Example I-58, rac-(3S,4S)-3-[4-(9-cyclopentyl-7,7-difluoro-5-methyl-6-oxo-6,7,8,9-tetrahydro-5H-pyrimido[4,5-b][1,4]diazepin-2-ylamino)-3-methoxy-benzoylamino]-4-methoxy-piperidine-1-carboxylic acid benzyl ester]
1 to 50 | COc1cc(C(=O)O)ccc1Nc1ncc2c(n1)N(C1CCC1)CC(F)(F)C(=O)N2C [Example I-1, 4-(9-cyclobutyl-7,7-difluoro-5-methyl-6-oxo-6,7,8,9-tetrahydro-5H-pyrimido[4,5-b][1,4]diazepin-2-ylamino)-3-methoxy-benzoic acid]
1 to 50 | COc1cc(C(N)=O)ccc1Nc1ncc2c(n1)N(C1CCC1)CC(F)(F)C(=O)N2C [Example I-2, 4-(9-cyclobutyl-7,7-difluoro-5-methyl-6-oxo-6,7,8,9-tetrahydro-5H-pyrimido[4,5-b][1,4]diazepin-2-ylamino)-3-methoxy-benzamide]
1 to 50 | CNC(=O)c1ccc(Nc2ncc3c(n2)N(C2CCC2)CC(F)(F)C(=O)N3C)c(OC)c1 [Example I-3, 4-(9-cyclobutyl-7,7-difluoro-5-methyl-6-oxo-6,7,8,9-tetrahydro-5H-pyrimido[4,5-b][1,4]diazepin-2-ylamino)-3-methoxy-N-methyl-benzamide]
1 to 50 | COc1cc(C(=O)NC2CCN(C)CC2)ccc1Nc1ncc2c(n1)N(C1CCC1)CC(F)(F)C(=O)N2C [Example I-4, 4-(9-cyclobutyl-7,7-difluoro-5-methyl-6-oxo-6,7,8,9-tetrahydro-5H-pyrimido[4,5-b][1,4]diazepin-2-ylamino)-3-methoxy-N-(1-methyl-piperidin-4-yl)-benzamide]
1 to 50 | COc1cc(C(=O)NC2CCNCC2)ccc1Nc1ncc2c(n1)N(C1CCC1)CC(F)(F)C(=O)N2C [Example I-5, 4-(9-cyclobutyl-7,7-difluoro-5-methyl-6-oxo-6,7,8,9-tetrahydro-5H-pyrimido[4,5-b][1,4]diazepin-2-ylamino)-3-methoxy-N-piperidin-4-yl-benzamide]
51 to 500 | COc1cc(C(=O)N2CCC(N)CC2)ccc1Nc1ncc2c(n1)N(C1CCC1)CC(F)(F)C(=O)N2C [Example I-6, 2-[4-(4-amino-piperidine-1-carbonyl)-2-methoxy-phenylamino]-9-cyclobutyl-7,7-difluoro-5-methyl-5,7,8,9-tetrahydro-pyrimido[4,5-b][1,4]diazepin-6-one]
1 to 50 | COc1cc(C(=O)NC2CCOCC2)ccc1Nc1ncc2c(n1)N(C1CCC1)CC(F)(F)C(=O)N2C [Example I-7, 4-(9-cyclobutyl-7,7-difluoro-5-methyl-6-oxo-6,7,8,9-tetrahydro-5H-pyrimido[4,5-b][1,4]diazepin-2-ylamino)-3-methoxy-N-(tetrahydro-pyran-4-yl)-benzamide]
1 to 50 | COc1cc(C(=O)NCCN(C)C)ccc1Nc1ncc2c(n1)N(C1CCC1)CC(F)(F)C(=O)N2C [Example I-8, 4-(9-cyclobutyl-7,7-difluoro-5-methyl-6-oxo-6,7,8,9-tetrahydro-5H-pyrimido[4,5-b][1,4]diazepin-2-ylamino)-N-(2-dimethylamino-ethyl)-3-methoxy-benzamide]
1 to 50 | COc1cc(C(=O)NCCCN(C)C)ccc1Nc1ncc2c(n1)N(C1CCC1)CC(F)(F)C(=O)N2C [Example I-9, 4-(9-cyclobutyl-7,7-difluoro-5-methyl-6-oxo-6,7,8,9-tetrahydro-5H-pyrimido[4,5-b][1,4]diazepin-2-ylamino)-N-(3-dimethylamino-propyl)-3-methoxy-benzamide]
1 to 50 | CCN1CCC(NC(=O)c2ccc(Nc3ncc4c(n3)N(C3CCC3)CC(F)(F)C(=O)N4C)c(OC)c2)CC1 [Example I-10, 4-(9-cyclobutyl-7,7-difluoro-5-methyl-6-oxo-6,7,8,9-tetrahydro-5H-pyrimido[4,5-b][1,4]diazepin-2-ylamino)-N-(1-ethyl-piperidin-4-yl)-3-methoxy-benzamide]
51 to 500 | CN1C(=O)C(F)(F)CN(C2CCC2)c2nc(Nc3ccc(C(=O)O)cc3)ncc21 [Example I-11, 4-(9-cyclobutyl-7,7-difluoro-5-methyl-6-oxo-6,7,8,9-tetrahydro-5H-pyrimido[4,5-b][1,4]diazepin-2-ylamino)-benzoic acid]
51 to 500 | CN1C(=O)C(F)(F)CN(C2CCC2)c2nc(Nc3ccc(C(N)=O)cc3)ncc21 [Example I-12, 4-(9-cyclobutyl-7,7-difluoro-5-methyl-6-oxo-6,7,8,9-tetrahydro-5H-pyrimido[4,5-b][1,4]diazepin-2-ylamino)-benzamide]
51 to 500 | CNC(=O)c1ccc(Nc2ncc3c(n2)N(C2CCC2)CC(F)(F)C(=O)N3C)cc1 [Example I-13, 4-(9-cyclobutyl-7,7-difluoro-5-methyl-6-oxo-6,7,8,9-tetrahydro-5H-pyrimido[4,5-b][1,4]diazepin-2-ylamino)-N-methyl-benzamide]
1 to 50 | CN1C(=O)C(F)(F)CN(C2CCC2)c2nc(Nc3ccc(C(=O)NC4CCNCC4)cc3)ncc21 [Example I-14, 4-(9-cyclobutyl-7,7-difluoro-5-methyl-6-oxo-6,7,8,9-tetrahydro-5H-pyrimido[4,5-b][1,4]diazepin-2-ylamino)-N-piperidin-4-yl-benzamide]
